In ChEMBL document CHEMBL1131128, “Structure-based design of cathepsin K inhibitors containing a benzyloxy-substituted benzoyl peptidomimetic” (J Med Chem, 1998):

Columns and labels:
Cathepsin K = molecular target: T1, Cathepsin K (Homo sapiens, UniProt P43235); test: Relative binding affinity was measured for Cathepsin K; conditions: read-out: Ki app
T1 sequence (P43235 whole entry): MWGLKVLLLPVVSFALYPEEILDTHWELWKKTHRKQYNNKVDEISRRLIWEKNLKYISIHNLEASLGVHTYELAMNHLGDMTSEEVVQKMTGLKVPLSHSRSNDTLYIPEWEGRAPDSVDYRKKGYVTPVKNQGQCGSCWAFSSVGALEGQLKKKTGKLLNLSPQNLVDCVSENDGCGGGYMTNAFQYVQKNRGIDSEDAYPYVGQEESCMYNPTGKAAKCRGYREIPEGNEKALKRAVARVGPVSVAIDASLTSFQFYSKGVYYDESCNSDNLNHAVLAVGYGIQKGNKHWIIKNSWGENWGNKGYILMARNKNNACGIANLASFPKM

[1] = molecular target: T2, Cathepsin K (Homo sapiens) (UniProt P43235); test: Second order rate constant was measured for the inhibition of Cathepsin K
T2 sequence (whole entry): T1 sequence (P43235 whole entry)

| Compound | Ki (Cathepsin K) [nM] | second-order inhibition rate constant (kobs/[I]) [1] [M⁻¹ s⁻¹] |
| --- | --- | --- |
| CC(C)C[C@H](NC(=O)OCc1ccccc1)C(=O)NNC(=O)NNC(=O)[C@H](C)NC(=O)OCc1ccccc1 | 1 | 685000 |
| CCC[C@H](NC(=O)OCc1ccccc1)C(=O)NNC(=O)NNC(=O)[C@H](CC(C)C)NC(=O)OCc1ccccc1 | 0.8 | 4e+06 |
| CC(C)C[C@H](NC(=O)OCc1ccccc1)C(=O)NNC(=O)NNC(=O)[C@H](CC(C)C)NC(=O)OCc1ccccc1 | 0.7 | 3.1e+06 |
| CC[C@H](NC(=O)OCc1ccccc1)C(=O)NNC(=O)NNC(=O)[C@H](CC(C)C)NC(=O)OCc1ccccc1 | 3.4 | 490000 |

The remaining lines, values ahead:

| Ki (Cathepsin K) [nM] | second-order inhibition rate constant (kobs/[I]) [1] [M⁻¹ s⁻¹] | Compound |
| --- | --- | --- |
| 100 | 44000 | CC(C)C[C@H](NC(=O)OCc1ccccc1)C(=O)NNC(=O)NNC(=O)c1ccc(OCc2ccccc2)cc1 |
| 12 | 318000 | CC(C)C[C@H](NC(=O)OCc1ccccc1)C(=O)NNC(=O)NNC(=O)c1ccccc1OCc1ccccc1 |
| 120 | 38000 | CC(C)C[C@H](NC(=O)OCc1ccccc1)C(=O)NNC(=O)NNC(=O)c1ccccc1 |
| 27 | 224000 | CC(C)C[C@H](NC(=O)OCc1ccccc1)C(=O)NNC(=O)NNC(=O)c1cccc(OCc2ccccc2)c1 |
